Measured values taken from US5442064A, “Carboxylic acid derivatives, pharmaceutical compositions containing these compounds and processes for preparing them” (Dr. Karl Thomae GmbH, priority 1992, dated 1995).
Where a name gives a salt, the structure may show the parent alone.

Tests used:
human thrombocytes = assay: Competitive binding of ^3 H-BIBU 52/test substance to human thrombocytes; conditions: human thrombocytes in plasma; ^3 H-BIBU 52 5 nM; ambient temperature, 20 minutes
Protocol: 1. Competitive binding of ^3 H-BIBU 52/test substance to human thrombocytes: […] Case 5/1093-FL), which replaces the ^125 I fibrinogen ligand known from the literature and various concentrations of the substance to be tested. The free and bound ligand is separated by centrifuging and quantified by scintillation counting. The inhibition of ^3 H-BIBU 52 binding by the test substance is determined from the measurements obtained. In order to do this, donor blood is taken from an anticubital vein and anticoagulated with trisodium citrate (final concentration 13 mM). The blood is centrifuged for 10 minutes at 170×g and the supernatant platelet-rich plasma (PRP) is removed. The remaining blood is vigorously centrifuged once more in order to obtain plasma. The PRP is diluted 1:10 with autologous plasma. 750 μl are incubated with 50 μl of physiological saline solution, 100 μl of test substance solution, 50 μl of ^14 C-sucrose (3,700 Bq) and 50 μl of ^3 H-BIBU 52 (final concentration: 5 nM) at ambient temperature for 20 minutes. In order to measure the non-specific binding, 5μl of BIBU 52 (final concentration: 30 μM) are used instead of the test substance. The samples are centrifuged for 20 seconds at 10,000×g and the supernatant is poured off. 100 μl thereof are measured in order to determine the free ligand. The pellet is dissolved in 500 μl of 0.2N NaOH, 450 μl are mixed with 2 ml of scintillator and 25 μl of 5N HCl and measured. The residual plasma remaining in the pellet is determined from the ^14 C-content and the bound ligand is determined from the ^3 H-measurement. After the non-specific binding has been deducted, the pellet activity is plotted against the concentration of the test substance and the concentration for 50% inhibition of binding is determined. 2. Antithrombotic activity

platelet aggregation = assay: Inhibition of platelet aggregation (collagen-induced, Born and Cross, platelet-rich plasma of healthy volunteers); type: cell-based; conditions: 10 minutes preincubation at 37° C
Protocol: In order to do this, donor blood is taken from an anticubital vein and anticoagulated with trisodium citrate (final concentration 13 mM). The blood is centrifuged for 10 minutes at 170×g and the supernatant platelet-rich plasma (PRP) is removed. The remaining blood is vigorously centrifuged once more in order to obtain plasma. The PRP is diluted 1:10 with autologous plasma. 750 μl are incubated with 50 μl of physiological saline solution, 100 μl of test substance solution, 50 μl of ^14 C-sucrose (3,700 Bq) and 50 μl of ^3 H-BIBU 52 (final concentration: 5 nM) at ambient temperature for 20 minutes. In order to measure the non-specific binding, 5μl of BIBU 52 (final concentration: 30 μM) are used instead of the test substance. The samples are centrifuged for 20 seconds at 10,000×g and the supernatant is poured off. 100 μl thereof are measured in order to determine the free ligand. The pellet is dissolved in 500 μl of 0.2N NaOH, 450 μl are mixed with 2 ml of scintillator and 25 μl of 5N HCl and measured. The residual plasma remaining in the pellet is determined from the ^14 C-content and the bound ligand is determined from the ^3 H-measurement. After the non-specific binding has been deducted, the pellet activity is plotted against the concentration of the test substance and the concentration for 50% inhibition of binding is determined. 2. Antithrombotic activity The thrombocyte aggregation is measured using the method of Born and Cross (J. Physiol. 170: 397 (1964)) in platelet-rich plasma taken from healthy volunteers. To inhibit coagulation the blood is mixed with 3.14% sodium citrate in a volume ratio of 1:10. The pattern of the decrease in optical density of the platelet suspension is photometrically measured and recorded after the addition of the aggregation-triggering substance. The rate of aggregation is determined from the angle of inclination of the density curve. The point on the curve where there is maximum light transmittance is used to calculate the optical density. The concentration of collagen used is as small as possible but sufficient to produce an irreversible reaction curve. Standard commercial collagen produced by Hormonchemie of Munich is used. Before the addition of the collagen the plasma is incubated for 10 minutes with the substance at 37° C. From the concentration/activity curve an EC50 is determined, which describes the concentration giving a 50% change in the optical density in terms of the inhibition of aggregation.

IC50 (human thrombocytes) | Compound | EC50 (platelet aggregation; Homo sapiens, Platelet) | EC50 (platelet aggregation; human platelet-rich plasma)
0.87 µM | COC(=O)[C@H]1CC[C@H](N(C)C(=O)N2CCN(c3ccc(C(=N)N)cc3)CC2)CC1 [1(1), 1-(4-amidinophenyl)-4-[N-[trans-4-(methoxycarbonyl)-cyclohexyl]-N-methyl-aminocarbonyl]-piperazine-hydrochloride] | 0.11 µM | 
1.2 µM | COC(=O)[C@H]1CC[C@H](NC(=O)N2CCC(c3ccc(C(=N)N)cc3)CC2)CC1 [1(5), 4-(4-amidinophenyl)-1-[N-[trans-4-(methoxycarbonyl)-cyclohexyl]-aminocarbonyl]-piperidine-hydrochloride] | 0.08 µM | 
17 µM | COC(=O)[C@H]1CC[C@H](N(C)C(=O)N2CCN(c3ccc(C(=N)N)cn3)CC2)CC1 [1(9), 1-(5-amidinopyrid-2-yl)-4-[N-[trans-4-(methoxycarbonyl)-cyclohexyl]-N-methyl-aminocarbonyl]-piperazine-hydrochloride] | 0.09 µM | 
30 µM | COC(=O)CC1CCN(C(=O)N2CCN(c3ccc(C(=N)N)cc3)CC2)CC1 [1(25), 1-(4-amidinophenyl)-4-[4-(methoxycarbonylmethyl)-piperidinocarbonyl]-piperazine-hydrochloride] | 6.8 µM | 
0.018 µM | CN(C(=O)N1CCN(c2ccc(C(=N)N)cc2)CC1)[C@H]1CC[C@H](C(=O)O)CC1 [2(1), 1-(4-amidinophenyl)-4-[N-(trans-4-carboxycyclohexyl)-N-methyl-aminocarbonyl]-piperazine-dihydrochloride] | 0.04 µM | 
0.047 µM | N=C(N)c1ccc(N2CCC(C(=O)N[C@H]3CC[C@H](C(=O)O)CC3)CC2)nc1 [2(2), 1-(5-amidinopyrid-2-yl)-4-[N-(trans-4-carboxycyclohexyl)-aminocarbonyl]-piperidine-dihydrochloride] | 0.09 µM | 
0.0045 µM | N=C(N)c1ccc(C2CCN(C(=O)N[C@H]3CC[C@H](C(=O)O)CC3)CC2)cc1 [2(3), 4-(4-amidinophenyl)-1-[N-(trans-4-carboxycyclohexyl)-aminocarbonyl]-piperidine-hydrochloride] |  | 0.03 µM
0.0015 µM | N=C(N)c1ccc(N2CCN(C(=O)N(Cc3ccccc3)[C@H]3CC[C@H](C(=O)O)CC3)CC2)cc1 [2(6), 1-(4-amidinophenyl)-4-[N-benzyl-N-(trans-4-carboxycyclohexyl)-aminocarbonyl]-piperazine-dihydrochloride] | 0.04 µM | 
0.23 µM | NCc1ccc(C2CCN(C(=O)N[C@H]3CC[C@H](C(=O)O)CC3)CC2)cc1 [2(11), 4-(4-aminomethylphenyl)-1-[N-(trans-4-carboxycyclohexyl)-aminocarbonyl]-piperidine-hydrochloride] | 0.38 µM | 
0.044 µM | N=C(N)c1ccc(N2CCN(C(=O)N3CCC(CC(=O)O)CC3)CC2)cc1 [2(17), 1-(4-amidinophenyl)-4-[4-(carboxymethyl)-piperidinocarbonyl]-piperazine-dihydrochloride] | 0.13 µM | 
0.37 µM | N=C(N)c1ccc(N2CCN(C(=O)N3CC=C(CC(=O)O)CC3)CC2)cc1 [2(19), 1-(4-amidinophenyl)-4-[4-(carboxymethyl)-3,4-dehydro-piperidinocarbonyl]-piperazine-dihydrochloride] | 0.62 µM | 
0.31 µM | NCc1ccc(N2CCN(C(=O)N[C@H]3CC[C@H](C(=O)O)CC3)CC2)nc1 [2(22), 1-(5-aminomethylpyrid-2-yl)-4-[N-(trans-4-carboxycyclohexyl)-aminocarbonyl]-piperazine-dihydrochloride] | 0.68 µM | 
0.1 µM | N=C(N)c1ccc(N2CCC(C(=O)N3CCC(CC(=O)O)CC3)CC2)nc1 [2(42), 1-(5-amidinopyrid-2-yl)-4-[4-(carboxymethyl)-piperidinocarbonyl]-piperidine-dihydrochloride] | 0.17 µM | 
0.23 µM | N=C(NC(=O)OCc1ccccc1)c1ccc(N2CCN(C(=O)N[C@H]3CC[C@H](C(=O)O)CC3)CC2)cc1 [3(1), 1-[4-(N-benzyloxycarbonyl-amidino)-phenyl]-4-[N-(trans-4-carboxycyclohexyl)-aminocarbonyl]-piperazine] | 0.66 µM | 
0.014 µM | N=C(N)c1ccc(C2CCN(C(=O)N[C@H]3CC[C@H](C(=O)O)CC3)CC2)cc1 [3(2), 4-(4-amidinophenyl)-1-[N-(trans-4-carboxycyclohexyl)-aminocarbonyl]-piperidine] |  | 0.1 µM
0.078 µM | N=C(N)c1ccc(N2CCC(C(=O)N3CCC(CC(=O)O)CC3)CC2)cc1 [3(4), 1-(4-amidinophenyl)-4-[4-(carboxymethyl)-piperidino-carbonyl]-piperidine] | 0.1 µM | 
0.18 µM | N=C(N)c1ccc(N2CCC(CC(=O)NCCC(=O)O)CC2)cc1 [3(12), 1-(4-amidinophenyl) -4-[N-(2-carboxyethyl)-amino-carbonylmethyl]-piperidine] | 0.29 µM | 
0.0057 µM | N=C(N)c1ccc(N2CCC(C(=O)N[C@H]3CC[C@H](C(=O)O)CC3)CC2)cc1 [3(15), 1-(4-amidinophenyl)-4-[N-(trans-4-carboxycyclo-hexyl)-aminocarbonyl]-piperidine] | 0.03 µM | 
0.074 µM | NCc1ccc(N2CCC(C(=O)N[C@H]3CC[C@H](C(=O)O)CC3)CC2)cc1 [3(17), 1-(4-aminomethylphenyl)-4-[N-(trans-4-carboxycyclo-hexyl)-aminocarbonyl]-piperidine-hydrochloride] | 0.18 µM | 
0.0091 µM | N=C(N)c1ccc(N2CCC(C(=O)N(CCc3ccccc3)[C@H]3CC[C@H](C(=O)O)CC3)CC2)cc1 [3(24), 1-(4-amidinophenyl)-4-[N-(trans-4-carboxycyclohexyl)-N-(2-phenylethyl)-aminocarbonyl]-piperidine] | 0.11 µM | 
0.004 µM | N=C(N)c1ccc(N2CCC(C(=O)N(CCCc3ccccc3)[C@H]3CC[C@H](C(=O)O)CC3)CC2)cc1 [3(25), 1-(4-amidinophenyl)-4-[N-(trans-4-carboxycyclohexyl)-N-(3-phenylpropyl)-aminocarbonyl]-piperidine] | 0.052 µM | 
0.012 µM | CCCCCN(C(=O)C1CCN(c2ccc(C(=N)N)cc2)CC1)[C@H]1CC[C@H](C(=O)O)CC1 [3(26), 1-(4-amidinophenyl)-4-[N-(trans-4-carboxycyclohexyl)-N-(n-pentyl)-aminocarbonyl]-piperidine] | 0.065 µM | 
2.1 µM | CN(C(=O)N1CCN(c2ccc(C(=N)N)cc2)CC1)[C@H]1CC[C@H](C(=O)OC2CCCCC2)CC1 [7(2), 1-(4-amidinophenyl)-4-[N-[trans-4-(cyclohexyloxy-carbonyl)-cyclohexyl]-N-methyl-aminocarbonyl]-piperazine-dihydrochloride] | 0.36 µM | 
5.3 µM | COC(=O)[C@H]1CC[C@H](NC(=O)N2CCN(c3ccc(CN)cc3)CC2)CC1 [Example 4, 1-(4-Aminomethylphenyl)-4-[N-[trans-4-(methoxycarbonyl)-cyclohexyl]-aminocarbonyl]-piperazine-hydrochloride] | 4.3 µM | 
1.2 µM | CC(C)OC(=O)[C@H]1CC[C@H](NC(=O)N2CCN(c3ccc(C(=N)N)cc3)CC2)CC1 [Example 7, 1-(4-Amidinophenyl)-4-[N-[trans-4-(isopropoxycarbonyl)-cyclohexyl]-aminocarbonyl]-piperazine-dihydrochloride] | 0.28 µM | 
